Measurements published in patent publication US20040219098A1, “Methods for the treatment of tumors” (priority 2003, published 2004).

How the values were obtained:
JJ5 Breast Cancer cells [1] = assay: Cytotoxicity (colony-forming) assay against JJ5 breast cancer cells; type: cell-based, human; details: 14 days
Protocol: JJ5 breast cancer cells were incubated with increasing amounts EGF-^111In-labeled transferrin composition or ^111In-oxine, centrifuged to remove free ligand, assayed and then seeded into 50 mm culture dishes. The number of cells seeded was varied from 3×10^4 to 3×10^6 cells to obtain approximately 400 viable colonies/dish taking into account the plating efficiency and the expected level of cytotoxicity. Control dishes contained JJ5 breast cancer cells which were incubated with normal saline. Growth medium was added and the cells were cultured at 37° C./5% CO^2 for 14 days. The growth medium was removed and the colonies were stained with methylene blue (1% in a 1:1 mixture of ethanol and water) then washed twice. The number of colonies per dish was counted using a manual colony counter (Manostat Corp). The plating efficiency was calculated by dividing the number of colonies observed by the number of cells seeded in each dish. The surviving fraction at increasing amounts of EGF-^111In-labeled transferrin composition or ^111In-oxine was calculated by dividing the plating efficiency for dishes containing treated cells with that observed for control dishes with normal saline.
Using a colony-forming assay, the radiotoxicity of internalization for JJ5 breast cancer cells was evaluated.

JJ5 Breast Cancer cells [2] = assay: Growth inhibition assay against JJ5 breast cancer cells; type: cell-based, human; details: cultured 4 days
Protocol: JJ5 breast cancer cells (prepared from BCBM JJ5) expressing approximately 10^6 epidermal growth factor receptors/cell were incubated with EGF-^111In-labeled transferrin composition, unlabeled hEGF or ^111In-oxine, centrifuged to remove free ligand, then assayed and seeded (10^6 cells/dish) into 35 mm culture dishes. Growth medium was added and the cells were cultured at 37° C./5% CO^2 for 4 days. The cells were then recovered by trypsinization and counted in a hemocytometer. Control dishes contained cells cultured in growth medium containing ^111In-DTPA or growth medium alone.

JJ5 Breast Cancer cells [3] = assay: Binding of EGF-111In-labeled transferrin composition to breast cancer cells (radioligand binding, kinetics, retention, internalization); design: species or system human; details: for binding / internalization by cancer cells (in words): JJ5 breast cancer cells
Text: Breast cancer cells express up to 100-fold higher levels of EGFR than do normal epithelial tissues. EGFR expression in breast cancer bone metastasis biopsies ranged from 1-1300 fmol/mg membrane protein (approximately 400-1,000,000 receptors/cell) and was associated with high relapse rates and poor long term survival. Normal epithelial cells express <10^4 receptors/cell. For the normal breast cell line HBL-100, 8000 EGFR/cell has been reported. The expression of EGFR in breast cancer cell lines has a reported range of 800 EGFR/cell for MCF-7 cells to 10^6 EGFR/cell for MDA-MB-468 cells. […] Utilizing the Auger electron emitter In was used in the initial experiments to illustrate the utility of the invention using EGF-^111In-labeled transferrin compositions. The EGF-^111In-labeled transferrin (0.25-80 ng) was incubated with 1.5×10^6 cells/dish JJ5 Breast Cancer (prepared from BCBM JJ5) cells in 1 mL of 0.1% human serum albumin in 35 mm multiwell culture dishes at 37° C. for 30 minutes. The cells were transferred to a centrifuge tube and centrifuged. The cell pellet was separated from the supernatant and counted in a g-scintillation counter to determine bound (B) and free (F) radioactivity. Non-specific binding was determined by conducting the assay in 100 nM hEGF. The kinetics of binding was determined by incubating 1 ng of EGF-^111In-labeled transferrin composition with 3×10^6 JJ5 Breast Cancer cells at 37° C. and determining the proportion of radioactivity bound to the cells at various times up to 24 hours. Internalized fraction was measured by determining the proportion of radioactivity which could not be displaced from the cell surface by 100 nM hEGF. Cell-associated binding (surface-binding and intracellular accumulation) was expressed as a percentage of medium radioactivity bound per mg of cell study protein.
EGF-^111In-labeled transferrin composition was rapidly bound by the breast cancer cells and retained for at least 24 hours. Over a 24 hour period at 37° C., <8% was lost from the cells in vitro.

Row | Compound | cell killing (JJ5 Breast Cancer cells [1]; <6 pCi/cell) | growth inhibition of the JJ5 cells compared to the medium control (JJ5 Breast Cancer cells [2]; 3.5 pCi/cell) | reduction in cell survival (JJ5 Breast Cancer cells [1]; 8 pCi/cell) | growth inhibition of the JJ5 cells compared to the medium control (JJ5 Breast Cancer cells [2]; 3.4 pCi/cell) | time retained by the breast cancer cells (JJ5 Breast Cancer cells [3]; 37° C., in vitro) | binding / internalization by cancer cells (in words) (JJ5 Breast Cancer cells [3]) | binding / internalization by cancer cells (in words) (JJ5 Breast Cancer cells [3]; listed as EGF-^111In-labeled transferrin compostions) | affinity constant for binding to JJ5 cells (JJ5 Breast Cancer cells [3]; association (affinity) constant, 37° C., 30 minutes, non-specific binding in 100 nM hEGF) | 111In radioactivity lost from the cells (JJ5 Breast Cancer cells [3]; over a 24 hour period at 37° C., in vitro)
1 | [In+3].[O-]c1cccc2cccnc12.[O-]c1cccc2cccnc12.[O-]c1cccc2cccnc12 [^111In oxine, reference compound] | greater than 99% | 91% |  |  |  |  |  |  | 
2 | EGF-^111In-labeled transferrin composition: human epidermal growth factor (EGF) operatively linked via linker-biotin/streptavidin to 111In-radiolabeled human transferrin |  |  | 99% | 83% | at least 24 hours | rapidly bound | rapidly internalized | 8e+08 L/mol | < 8%
